According to PubChem BioAssay AID248 (DTP/NCI, 2004):
Inconclusive results and toxic doses are left out. Cut-off read from the data, not from the text of the source: active = T/C of 150% or more; inactive = T/C below 125%.

Tested on: L1210 leukemia ip in BDF1 mice, survival T/C
Assay: NCI In Vivo Anticancer Drug Screen. Data for tumor model L1210 Leukemia (intraperitoneal) in B6D2F1 (BDF1) mice
Details: endpoint: mean survival time, higher = longer survival
Summary of the method: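 Mice bearing the transplanted tumor received compound or vehicle. Survival of the treated group was divided by that of the vehicle-treated control group to give the ratio.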

[1] = dose: 100.0 mg/kg/injection, schedule: Q01DX009 (ip), vehicle: saline sonified
[2] = dose: 100.0 mg/kg/injection, schedule: Q04DX003 (ip), vehicle: saline sonified
[3] = dose: 200.0 mg/kg/injection, schedule: Q01DX009 (ip), vehicle: saline sonified
[4] = dose: 200.0 mg/kg/injection, schedule: Q04DX003 (ip), vehicle: saline sonified
[5] = dose: 400.0 mg/kg/injection, schedule: Q01DX009 (ip), vehicle: saline sonified
[6] = dose: 400.0 mg/kg/injection, schedule: Q04DX003 (ip), vehicle: saline sonified
[7] = dose: 100.0 mg/kg/injection, schedule: Q01DX009 (ip), vehicle: Klucel (hydroxypropylcellulose) (HPC)
[8] = dose: 200.0 mg/kg/injection, schedule: Q01DX009 (ip), vehicle: Klucel (hydroxypropylcellulose) (HPC)
[9] = dose: 400.0 mg/kg/injection, schedule: Q01DX009 (ip), vehicle: Klucel (hydroxypropylcellulose) (HPC)
[10] = dose: 100.0 mg/kg/injection, schedule: Q01DX001 (ip), vehicle: other
[11] = dose: 100.0 mg/kg/injection, schedule: Q04DX003 (ip), vehicle: saline with Tween-80
[12] = dose: 200.0 mg/kg/injection, schedule: Q04DX003 (ip), vehicle: saline with Tween-80
[13] = dose: 400.0 mg/kg/injection, schedule: Q04DX003 (ip), vehicle: saline with Tween-80

Measured: T/C

CC1=CC(=O)C2C(C)(O1)C1C(=O)C=C(C)OC21C (stereo unspecified)
inactive: dose: 100.0 mg/kg/injection, schedule: Q01DX001 (ip), vehicle: Klucel (hydroxypropylcellulose) (HPC) 93 % of control | dose: 100.0 mg/kg/injection, schedule: Q04DX003 (ip), vehicle: Klucel (hydroxypropylcellulose) (HPC) 101 % of control | dose: 200.0 mg/kg/injection, schedule: Q01DX001 (ip), vehicle: Klucel (hydroxypropylcellulose) (HPC) 101 % of control | dose: 200.0 mg/kg/injection, schedule: Q04DX003 (ip), vehicle: Klucel (hydroxypropylcellulose) (HPC) 100 % of control | dose: 400.0 mg/kg/injection, schedule: Q01DX001 (ip), vehicle: Klucel (hydroxypropylcellulose) (HPC) 104 % of control | dose: 400.0 mg/kg/injection, schedule: Q04DX003 (ip), vehicle: Klucel (hydroxypropylcellulose) (HPC) 92 % of control

CC(C)(CCCC(C)(C)[N+](=O)[O-])[N+](=O)[O-]
inactive: dose: 100.0 mg/kg/injection, schedule: Q01DX001 (ip), vehicle: saline with Tween-80 101 % of control | dose: 200.0 mg/kg/injection, schedule: Q01DX001 (ip), vehicle: saline with Tween-80 94 % of control | dose: 400.0 mg/kg/injection, schedule: Q01DX001 (ip), vehicle: saline with Tween-80 101 % of control

O=C(Cc1ccccc1)NCc1ccc(Cl)cc1
inactive: dose: 100.0 mg/kg/injection, schedule: Q04DX002 (ip), vehicle: saline with Tween-80 96 % of control | dose: 200.0 mg/kg/injection, schedule: Q04DX002 (ip), vehicle: saline with Tween-80 101 % of control | dose: 400.0 mg/kg/injection, schedule: Q04DX002 (ip), vehicle: saline with Tween-80 114 % of control

COc1cc2ccc3c(c2cc1OC)CN1CCc2cc4c(cc2C1C3)OCO4 (stereo unspecified)
inactive: [1] 93 % of control | [2] 109 % of control | [3] 109 % of control | [4] 98 % of control | [5] 94 % of control | [6] 101 % of control

O=C(O)COCc1ccccc1
inactive: [2] 97 % of control | [4] 92 % of control | [6] 92 % of control

CC(C)(C)CC(C)(C)c1ccc(OCCOCCOc2ccc([N+](=O)[O-])cc2)cc1
inactive: [1] 94 % of control | [3] 96 % of control | [5] 94 % of control

O=C(O)C1C(=O)Oc2c(cccc2[N+](=O)[O-])C1O (stereo unspecified)
inactive: dose: 100.0 mg/kg/injection, schedule: Q01DX001 (ip), vehicle: carboxymethylcellulose (CMC) 94 % of control | dose: 200.0 mg/kg/injection, schedule: Q01DX001 (ip), vehicle: carboxymethylcellulose (CMC) 92 % of control | dose: 400.0 mg/kg/injection, schedule: Q01DX001 (ip), vehicle: carboxymethylcellulose (CMC) 92 % of control

Clc1ccccc1Nc1nnnc2ccccc12
inactive: dose: 50.0 mg/kg/injection, schedule: Q01DX009 (ip), vehicle: saline 91 % of control | dose: 100.0 mg/kg/injection, schedule: Q01DX009 (ip), vehicle: saline 95 % of control | dose: 100.0 mg/kg/injection, schedule: Q04DX003 (ip), vehicle: acetone 96 % of control | dose: 200.0 mg/kg/injection, schedule: Q01DX009 (ip), vehicle: saline 90 % of control | dose: 200.0 mg/kg/injection, schedule: Q04DX003 (ip), vehicle: acetone 100 % of control | dose: 400.0 mg/kg/injection, schedule: Q04DX003 (ip), vehicle: acetone 98 % of control

O=C(Nc1ccccc1)Oc1ccc(Cl)cc1Cl
inactive: dose: 100.0 mg/kg/injection, schedule: Q04DX002 (ip), vehicle: Klucel (hydroxypropylcellulose) (HPC) 104 % of control | dose: 200.0 mg/kg/injection, schedule: Q04DX002 (ip), vehicle: Klucel (hydroxypropylcellulose) (HPC) 110 % of control | dose: 400.0 mg/kg/injection, schedule: Q04DX002 (ip), vehicle: Klucel (hydroxypropylcellulose) (HPC) 96 % of control

C/C(N=Nc1ccccc1[N+](=O)[O-])=N\Nc1ccccc1
inactive: dose: 50.0 mg/kg/injection, schedule: Q01DX009 (ip), vehicle: Klucel (hydroxypropylcellulose) (HPC) 95 % of control | [7] 97 % of control | [8] 95 % of control | [9] 95 % of control

CCN(CC)CCOC(=O)C(S)(c1ccccc1)c1ccccc1
inactive: dose: 75.0 mg/kg/injection, schedule: Q01DX001 (ip), vehicle: other 100 % of control

NCCc1cc2c3c(c1)CCCN3CCC2
inactive: dose: 0.78 mg/kg/injection, schedule: Q01DX009 (ip), vehicle: saline 95 % of control | dose: 1.56 mg/kg/injection, schedule: Q01DX009 (ip), vehicle: saline 102 % of control | dose: 3.12 mg/kg/injection, schedule: Q01DX009 (ip), vehicle: saline 91 % of control | dose: 6.25 mg/kg/injection, schedule: Q01DX009 (ip), vehicle: saline 97 % of control | dose: 12.5 mg/kg/injection, schedule: Q01DX001 (ip), vehicle: saline 100 % of control | dose: 25.0 mg/kg/injection, schedule: Q01DX001 (ip), vehicle: saline 94 % of control

Cn1c(=O)cc(CC#N)c2ccccc21
inactive: [10] 100 % of control

COc1cc(Br)c(/C=C/C(=O)O)cc1OC
inactive: [11] 95 % of control | [12] 93 % of control | [13] 92 % of control

O=C(COc1ccc(Cl)cc1Cl)Nc1cc(C(F)(F)F)ccc1Cl
inactive: dose: 50.0 mg/kg/injection, schedule: Q01DX001 (ip), vehicle: other 96 % of control | [10] 107 % of control | dose: 100.0 mg/kg/injection, schedule: Q04DX002 (ip), vehicle: gum acacia 118 % of control | dose: 200.0 mg/kg/injection, schedule: Q01DX001 (ip), vehicle: other 89 % of control | dose: 200.0 mg/kg/injection, schedule: Q04DX002 (ip), vehicle: gum acacia 91 % of control | dose: 400.0 mg/kg/injection, schedule: Q01DX001 (ip), vehicle: other 94 % of control | dose: 400.0 mg/kg/injection, schedule: Q04DX002 (ip), vehicle: gum acacia 103 % of control

Cc1ccc(C)[nH]1
inactive: dose: 5.0 mg/kg/injection, schedule: Q01DX009 (ip), vehicle: saline with Tween-80 96 % of control | dose: 5.0 mg/kg/injection, schedule: Q04DX003 (ip), vehicle: saline with Tween-80 93 % of control | dose: 10.0 mg/kg/injection, schedule: Q01DX009 (ip), vehicle: saline with Tween-80 94 % of control | dose: 10.0 mg/kg/injection, schedule: Q04DX003 (ip), vehicle: saline with Tween-80 98 % of control | dose: 20.0 mg/kg/injection, schedule: Q01DX009 (ip), vehicle: saline with Tween-80 100 % of control | dose: 20.0 mg/kg/injection, schedule: Q04DX003 (ip), vehicle: saline with Tween-80 93 % of control

c1ccc(-c2cc3c(cc2-c2ccccc2)C(c2ccccc2)(c2ccccc2)c2nc4ccccc4nc2-3)cc1
inactive: [11] 95 % of control | [12] 93 % of control | [13] 91 % of control

CCOC(=O)NC(C(=O)OC)C(=O)OC
inactive: [7] 97 % of control | dose: 100.0 mg/kg/injection, schedule: Q04DX003 (ip), vehicle: saline 100 % of control | [8] 97 % of control | dose: 200.0 mg/kg/injection, schedule: Q04DX003 (ip), vehicle: saline 97 % of control | [9] 97 % of control | dose: 400.0 mg/kg/injection, schedule: Q04DX003 (ip), vehicle: saline 100 % of control

Cc1nccc2c(C)c3c(cc12)c1ccccc1n3CC1CO1 (stereo unspecified)
inactive: dose: 4.69 mg/kg/injection, schedule: Q01DX009 (ip), vehicle: saline with Tween-80 119 % of control | dose: 9.37 mg/kg/injection, schedule: Q04DX003 (ip), vehicle: saline with Tween-80 113 % of control | dose: 18.75 mg/kg/injection, schedule: Q01DX009 (ip), vehicle: saline with Tween-80 124 % of control | dose: 18.75 mg/kg/injection, schedule: Q04DX003 (ip), vehicle: saline with Tween-80 119 % of control | dose: 37.5 mg/kg/injection, schedule: Q01DX009 (ip), vehicle: saline with Tween-80 103 % of control | dose: 37.5 mg/kg/injection, schedule: Q04DX003 (ip), vehicle: saline with Tween-80 122 % of control | dose: 75.0 mg/kg/injection, schedule: Q01DX009 (ip), vehicle: saline with Tween-80 92 % of control | dose: 150.0 mg/kg/injection, schedule: Q04DX003 (ip), vehicle: saline with Tween-80 115 % of control
